The results in this text go back to ChEMBL document CHEMBL6096732 (J Med Chem, 2025).

The structures appear in SMILES notation.

This assay deals with T1, Protein deacetylase HDAC6 (Homo sapiens) (UniProt Q9UBN7).
T1 sequence (whole entry): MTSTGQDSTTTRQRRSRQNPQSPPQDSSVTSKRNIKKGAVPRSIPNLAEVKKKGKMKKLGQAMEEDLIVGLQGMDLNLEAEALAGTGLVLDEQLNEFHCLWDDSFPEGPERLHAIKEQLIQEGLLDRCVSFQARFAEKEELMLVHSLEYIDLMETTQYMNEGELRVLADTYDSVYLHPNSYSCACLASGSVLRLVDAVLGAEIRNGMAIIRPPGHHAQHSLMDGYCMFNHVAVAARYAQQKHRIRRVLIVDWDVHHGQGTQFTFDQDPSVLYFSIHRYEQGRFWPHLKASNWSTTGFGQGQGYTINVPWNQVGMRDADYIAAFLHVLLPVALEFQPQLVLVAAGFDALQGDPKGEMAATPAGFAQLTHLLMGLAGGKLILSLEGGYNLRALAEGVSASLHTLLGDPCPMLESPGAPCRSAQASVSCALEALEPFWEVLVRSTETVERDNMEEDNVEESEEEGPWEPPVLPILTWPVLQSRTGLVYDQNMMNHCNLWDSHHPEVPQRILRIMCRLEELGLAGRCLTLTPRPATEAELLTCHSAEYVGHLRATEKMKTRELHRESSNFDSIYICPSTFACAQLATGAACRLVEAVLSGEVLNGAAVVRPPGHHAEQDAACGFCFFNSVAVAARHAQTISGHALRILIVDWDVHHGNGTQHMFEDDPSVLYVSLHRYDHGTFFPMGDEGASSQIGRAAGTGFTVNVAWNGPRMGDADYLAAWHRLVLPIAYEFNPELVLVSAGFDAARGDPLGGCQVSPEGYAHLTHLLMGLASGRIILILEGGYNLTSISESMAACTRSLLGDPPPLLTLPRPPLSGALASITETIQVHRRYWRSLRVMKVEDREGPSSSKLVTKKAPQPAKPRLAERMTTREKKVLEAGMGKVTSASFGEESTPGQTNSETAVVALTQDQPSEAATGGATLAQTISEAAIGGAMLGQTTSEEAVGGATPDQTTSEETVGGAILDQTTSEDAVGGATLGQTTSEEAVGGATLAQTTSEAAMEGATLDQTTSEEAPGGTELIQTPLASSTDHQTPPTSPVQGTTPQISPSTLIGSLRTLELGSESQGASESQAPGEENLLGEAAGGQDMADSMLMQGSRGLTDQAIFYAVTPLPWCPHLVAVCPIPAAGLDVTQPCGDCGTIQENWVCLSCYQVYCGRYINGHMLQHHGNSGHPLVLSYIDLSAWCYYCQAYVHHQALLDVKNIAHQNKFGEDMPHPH
To be noted: dose 500.0 nM, time 3.0 hrs.

One may read the inhibition as the percentage by which the read-out fell short of the control. For `CCCNNC(=O)c1ccc(Cn2c3ccccc3c3c(-c4ccccn4)nc4ccccc4c32)cc1`, the inhibition is 17%.
